Tests used:
Format in all cases: in vivo, Caenorhabditis elegans
hsp-6 RNA = assay: Real time quantitative PCR, hsp-6; settings: 50 μM ThT, 3 and 6 days of treatment
Procedure: (§1) Twelve single adults from control or 50 μM ThT populations were picked after 3, 6 and 12 days of treatment into 5 μl of distilled water and flash frozen until extraction. Individual worms were extracted using the RNeasy Micro Kit, TissueLyser and QIAcube (Qiagen). Using the manufacturer's standard Animal Tissue protocol, each sample was homogenized in buffer RLT/Bme (Qiagen) on the TissueLyser (6 min total at 20 Hz). Samples, reagents and columns were then loaded into the QIAcube robot, and processed using the “RNeasy Micro—Animal tissues and cells—DNase digest” program. Each sample was then eluted in 14 μl of Nuclease-free water. cDNA templates for the Real Time PCR reactions were made using a combination of Message Sensor RT kit (Ambion's) and TaqMan PreAmp Master Mix (Applied Biosystems). The entire worm sample was added to the RT reaction and reversed transcribed at 50° C. for 20 min, using Message Sensor's “Two Step RT-PCR Protocol” (sample RT's were randomized). Then 2.5 μl of the cDNA sample was pre-amplified with a “4×Multiplex Primer Mix” for 14 cycles using TaqMan PreAmp master mix and protocol (ABI). Two modifications were made to ABI's protocol: 1. the reaction volume was reduced to 10 μl and 2. after pre-amplification, each cDNA sample was diluted 1:5 with 1XTE Buffer (Promega). cDNA samples were stored at −20° C. until needed. […]

HSP-16.2 = assay: Western blot HSP-16.2; settings: 50 μM ThT, 100 μM curcumin, 4 and 7 days of treatment
Procedure: (§2) Peptide corresponding to amino acids 110-145 ([…]; SEQ ID NO:1) of HSP-16.2 was used to commercially synthesize antiserum (Invitrogen). Briefly, KLH-peptide was emulsified by mixing with an equal volume of Freund's adjuvant and injected into three subcutaneous dorsal sites for a total of 0.1 mg of peptide for immunization. The animals (rabbits) were bled, the blood allowed to clot and the serum collected by centrifugation. Monoclonal HSP-70 and Polyclonal HSF-1 primary antibodies were from stressgen (N27F3-4 and SPA-901, respectively).
(§3) Worms were transferred to siliconized eppendorf tubes, washed once in S-basal and frozen in liquid N2. Standard SDS-PAGE was performed using (4-12%) NOVEX gels and IVIES running buffer. Following transfer PVDF (BioRad) membranes were incubated with antisera (1:10000) or primary antibodies (1:1000) diluted in blocking buffer and then with secondary, goat anti-rabbit IgG antibody/horseradish peroxidase conjugate (Pierce), diluted 1:25000. Detection was undertaken with chemiluminescent reagents (SuperSignal, Pierce) and standard autoradiography.

unc-52 RNA = assay: Real time quantitative PCR, unc-52; settings: 50 μM ThT, 12 days of treatment
Procedure: as §1

[1] = test system: DAF-16 fusion protein [TJ356 daf-16::daf-16-gfp]; assay: DAF-16::GFP localization; settings: ThT or curcumin treatment, no heat shock
Procedure: (§4) For fluorescent microscopy, TJ356 zIs356 IV [daf-16::daf-16-gfp+rol-6] or CF2189 Is001(skn-1::gfp+rol-6) were paralyzed with 1 mM levamisole mounted on 1% agarose pads and imaged using Olympus BX51 (60× objective) and HCImage software (Hamamatsu). For immunofluorescence, N2, […], CB1157 unc-54(e1157) or CL4176 dvIs27 [myo-3::Aβ(3 to 42)-let 3′UTR(pAF29); pRF4 (rol-6(su1006))] worms were treated for 24-36 h with or without 50 μM ThT at 25° C. After this period the worms were collected, rinsed, and fixed in 4% paraformaldehyde overnight. […] Paramyosin and perlecans were detected with primary monoclonal antibodies 5-23 and MH3 (developed by Henry Epstein and Robert H. Waterston and obtained from the Developmental Studies Hybridoma Bank developed under the auspices of the NICHD and maintained by The University of Iowa, Department of Biology, Iowa City, Iowa 52242) and AlexaFluor 633 goat anti-mouse (Molecular Probes) as secondary antibody. Soluble oligomers and Aβ peptide were detected with anti polyclonal All (Invitrogen) and 6E10 monoclonal (Covance) primary antibodies, respectively, with AlexaFluor 568 goat anti-rabbit and AlexaFluor 488 goat anti-mouse (Molecular Probes) as secondary antibodies. Images were processed and quantified by using Image Analyst MK II (Novato, Calif.).

HSF-1 = assay: Western blot HSF-1; settings: ThT treatment
Procedure: as §2, §3

unc-54 RNA = assay: Real time quantitative PCR, unc-54; settings: 50 μM ThT, 3, 6 and 12 days of treatment
Procedure: as §1

[2] = test system: CL4176 (Aβ3-42 expressed in muscle); assay: Worm paralysis assay, Aβ model
Procedure: (§5) Scoring for paralysis was initiated 2 and 8 days after temperature upshift for CL4176 and AM140, respectively. […] For sensitivity to EtOH or levamisole resistance, CW152 gas-1 (fc21) X and ZZ26 unc-63(x26)I worms were picked into 0.4 M EtOH or 50 μM levamisole, respectively, equilibrated for 5 min, and scored for paralysis as described above. Treated and untreated worms were compared with an unpaired t-test (implemented in Prism 4, Graphpad™ Software, Inc., San Diego, Calif., USA).

CB1157 [unc-54(e1157)I] = assay: Worm paralysis assay, unc-54 ts mutant; settings: restrictive temperature 25° C.
Procedure: as §5

CW152 gas-1(fc21) X = assay: Ethanol sensitivity of gas-1 ts mutant; settings: 0.4 M EtOH, after 3 days of treatment
Procedure: as §5

[3] = test system: UNC-54 (paramyosin) in unc-54(e1157)I; assay: Paramyosin immunolocalization / sarcomere structure; settings: 50 μM ThT, 24 h at 25° C.
Procedure: as §4

## Cc1ccc2c(c1)sc(-c1ccc(N(C)C)cc1)[n+]2C.[Cl-] [ThT, 4-(3,6-dimethyl-1,3-benzothiazol-3-ium-2-yl)-N,N-dimethylaniline chloride]
hsp-6 RNA
  hsp-6 RNA levels: up-regulated
HSP-16.2
  HSP-16.2 protein levels: up-regulated
unc-52 RNA
  unc-52 RNA levels: decreases the levels of unc-52
[1]
  DAF-16::GFP localization: did not alter the normal localization
HSF-1
  HSF-1 protein levels: slight increase
unc-54 RNA
  unc-54 RNA levels: increases unc-54 RNA levels after 3, but not at 6 or 12 days of treatment
[2]; CL4176, 50 μM ThT added 18 h after induction of aggregate formation
  paralysis when treated after aggregation induction: rescued the Aβ3-42 aggregation-induced paralysis
[2]; CL4176, 25° C., 50 μM ThT, 100 μM curcumin
  proportion of paralyzed worms: significantly decrease the proportion of paralyzed worms
CB1157 [unc-54(e1157)I]
  paralysis phenotype of unc-54 mutant: suppressed paralysis
CW152 gas-1(fc21) X
  ethanol sensitivity: decreases the ethanol sensitivity
[3]
  muscle sarcomere structure: prevented the disruption of the muscle sarcomeres
